Where two headings read alike, the source gives them in different places.
Target: T1, hAhR (Homo sapiens, UniProt P35869)
T1 construct: Stably integrated DRE-luciferase cell lines were generated by transducing the both cell lines with Cignal XRE luciferase reporter (Qiagen) lentiviral particles; endogenous in cells; host or cells: HEPG2 (human hepatoma) with stably integrated XRE/DRE-luciferase reporter
T1 sequence (P35869 11-848): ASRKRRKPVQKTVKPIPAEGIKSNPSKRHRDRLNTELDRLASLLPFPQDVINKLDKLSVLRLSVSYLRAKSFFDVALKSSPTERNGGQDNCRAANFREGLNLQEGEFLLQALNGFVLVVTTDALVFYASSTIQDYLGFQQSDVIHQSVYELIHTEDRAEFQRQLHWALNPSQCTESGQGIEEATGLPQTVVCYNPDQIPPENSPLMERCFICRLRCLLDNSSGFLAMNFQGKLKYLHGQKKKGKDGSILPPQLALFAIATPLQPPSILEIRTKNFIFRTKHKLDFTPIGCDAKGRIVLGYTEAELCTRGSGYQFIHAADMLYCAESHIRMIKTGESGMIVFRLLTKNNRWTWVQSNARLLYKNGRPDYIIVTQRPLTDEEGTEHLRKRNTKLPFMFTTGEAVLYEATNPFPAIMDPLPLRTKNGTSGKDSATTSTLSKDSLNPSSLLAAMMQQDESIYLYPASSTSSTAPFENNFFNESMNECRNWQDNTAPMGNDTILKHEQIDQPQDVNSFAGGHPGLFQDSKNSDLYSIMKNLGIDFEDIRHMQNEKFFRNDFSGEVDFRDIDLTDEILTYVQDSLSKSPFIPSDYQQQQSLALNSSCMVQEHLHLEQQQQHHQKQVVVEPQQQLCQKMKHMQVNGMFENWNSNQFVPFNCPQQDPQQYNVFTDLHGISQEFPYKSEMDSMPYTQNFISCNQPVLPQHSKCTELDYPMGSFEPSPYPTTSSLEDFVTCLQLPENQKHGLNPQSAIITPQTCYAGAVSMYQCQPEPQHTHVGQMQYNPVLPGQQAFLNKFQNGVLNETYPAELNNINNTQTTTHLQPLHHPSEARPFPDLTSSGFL
Test: DRE-luciferase transcriptional assay, antagonist mode, in HEPG2 DRE-Luc cells stimulated with TCDD
Assay type: cell-based
Conditions: for IC50: relative IC50, read-out: IC50 hAhR (antagonist mode); for Emax: read-out: HEPG2 % Max Inhibition
Description: HEPG2 and HEPA1C1C7 cells were maintained in MEM and αMEM without nucleosides supplemented with 10% heat inactivated FBS respectively. Stably integrated DRE-luciferase cell lines were generated by transducing the both cell lines with Cignal XRE luciferase reporter (Qiagen) lentiviral particles according to the manufacturer protocol. For both cell lines stably integrated reporter cell lines were selected for the presence of 2 μg/mL puromycin. Following selection of stably integrated cell line pools, clonal cell lines were isolated by limiting dilution in 96-well plates. Transcriptional assays were performed by seeding 100 μL of cells at a density of 250,000 or 100,000 cells/mL, for HEPG2 and HEPA1C1C7 DRE-Luc cells respectively, into 96-well cell culture plates in OptiMEM supplemented with 0.5% heat inactivated FBS and allowed to attach overnight. For antagonist assays, the compounds were added in a semi-log dose response using a D300e Digital Dispenser (Tecan) followed normalization with vehicle (DMSO). Immediately following compound addition […] of 2,3,7,8-Tetrachlorodibenzo-p-dioxin (TCDD) was added to the cells to a final concentration of 3 nM or 0.3 nM for the HEPG2 and HEPA1C1C7 DRE-Luc cells respectively. Following 24 h incubation the medium was removed and the cells were lysed in 25 μL of Reporter Lysis Buffer (Promega). Firefly luciferase activity was measured immediately following the addition of 50 μL Luciferase Assay Reagent (Promega). The percent maximal activity for each point was determined using the following equation: 100−(RLUsample−RLUvehicle−TCDD)/(RLUvehicle+TCDD RLUvehicle−TCDD)*100. The relative IC50, defined as the compound concentration required to reduce the TCDD induced response between the top and bottom plateau of each individual dose response curve by half, for each compound was determined using Prism 7 (GraphPad Software).

[1] = HEPG2 DRE-Luc cells, 3 nM TCDD, 24 h incubation

Row | IC50 [1] [µM] | Emax [1] [%] | SMILES | Emax (HepG2, 24 h) [%]
1 | 1 to 10 | 31 | Cc1nccn1-c1cn2c(C(C)C)cnc2c(NCc2ccc(C(N)=O)cc2)n1 [Example 31, 4-({[3-isopropyl-6-(2-methylimidazolyl)-4-hydroimidazo[1,2-a]pyrazin-8-yl]amino}methyl)benzamide] | –
2 | 0.2 to 0.5 | 100 | Cc1nccn1-c1cn2c(C(C)C)cnc2c(OCCc2c[nH]c3ccccc23)n1 [Example 32, 8-(2-indol-3-ylethoxy)-3-(methylethyl)-6-(2-methylimidazolyl)-4-hydroimidazo[1,2-a]pyrazine] | –

Row | SMILES | IC50 [1] [µM] | Emax [1] [%] | Emax (HepG2, 24 h) [%]
3 | CC(C)c1cnc2c(NCCn3cnc4ccccc43)nc(-c3cncc(F)c3)cn12 [Example 30, (2-benzimidazolylethyl)[6-(5-fluoro(3-pyridyl))-3-isopropyl(4-hydroimidazo[1,2-a]pyrazin-8-yl)]amine] | 1 to 10 | – | 94
